# Patent US20260234188A1, “CHEMOKINE-BINDING PEPTIDES” (Oxford University Innovation Limited, priority 2022, published 2026)
# “Also recorded” adds a separate entry of the source.
# System: panel of up to 42 human chemokines
# Assay: Phage-display next generation sequencing screen of overlapping hexadecapeptide libraries, chemokines displayed on streptavidin beads;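 further: chemokine listed when log2 fold enrichment exceeds 5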
# Type: binding
# Details: log2E greater than 5, chemokines named by first part of UniProt Entry Name
# How it was run: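 Phage-display libraries of 55662 overlapping hexadecapeptides from tick and viral chemokine-binding proteins, human chemokines and chemokine receptors screened against up to 42 human chemokines, with hits found by next-generation sequencing. Peptides mapped to parent-protein position with log2 fold enrichment; regions of interest where cumulative residue log2 E exceeds the 95% upper CI of the protein median.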
row,Substance,Chemokines Bound
1,CR4205 (ELFLAVKIVFSFIWGV),"CCL11, CCL17,; also recorded: CCL18, CCL19,; also recorded: CCL2, CCL20,; also recorded: CCL22, CCL25,; also recorded: CCL28, X3CL1,; also recorded: CXL10, CXL11,; also recorded: SDF1, CXL13,; also recorded: CXL14, IL8"
2,CR23773 (TSVITWLVAVFASVPG),"CCL1, CCL18, and CCL2, CCL20, and CCL8"
3,CR26536 (WGWVLGDFLCKLLNMI),"CCL1, CCL11,; also recorded: CCL17, CCL18,; also recorded: CCL20, CCL22,; also recorded: CCL28, CCL5,; also recorded: X3CL1, CXL10,; also recorded: SDF1, IL8"
4,CR3135 (DFLCKLLNMIFSISLY),"CCL17, CCL22,; also recorded: CCL25, CCL28,; also recorded: CXL11, IL8"
5,CR26399 (VYTVLLSWKVLLTLVW),"CCL1, CCL17, and CCL18, CCL19, and CCL20, CCL22, and CCL25, CCL28, and X3CL1, CXL10, and CXL11, SDF1, and CXL13, CXL14, and IL8"
6,CR5475 (FLFHLAVADLLLVFIL),"CCL20, CCL22,; also recorded: CCL28, CXL10,; also recorded: CXL11, SDF1,; also recorded: CXL14"
7,CR26630 (WLMCIVGTFLNVLVIT),"CCL1, CCL17,; also recorded: CCL18, CCL19,; also recorded: CCL20, CCL22,; also recorded: CCL28, CCL8,; also recorded: X3CL1, CXL10,; also recorded: CXL11, SDF1,; also recorded: CXL14, IL8"
8,CR26801 (WVFIFSSIQLCTVVFL),"CCL1, CCL17,; also recorded: CCL18, CCL19,; also recorded: CCL20, CCL28,; also recorded: X3CL1, SDF1"
9,CR4845 (FDFMILNLSFCDLFIC),"X3CL1, CXL13, and IL8"
10,CR23880 (TTVILILAFFASWLPY),"CCL1, CCL18,; also recorded: CCL20, CCL25,; also recorded: CCL28, SDF1,; also recorded: CXL14"
11,CR26308 (VWLMCIVGTFLNVLVI),"CCL18, CCL20, and CCL22, CCL28, and CXL10, CXL11, and SDF1"
12,CR3373 (DLTNWKLLAEIYEYLF),"CCL2, CCL22, and CCL28, CXL10, and CXL11, SDF1, and CXL13, CXL14, and IL8"
13,CR25167 (VLGLLLNSLALWVFSS),"CCL11, CCL17,; also recorded: CCL18, CXL11,; also recorded: CXL14"
14,CR25802 (VSILVWLLAFSVSLPD),"CCL15, CCL18, and CCL19, CCL20, and CCL28, CXL10, and IL8"
15,CR24900 (VIGFLVPLLAMSFCYL),"CCL15, CCL17,; also recorded: CCL18"
16,CR26001 (VTLTSLAVWGLSLLFA),"CCL11, CCL2,; also recorded: CCL28, SDF1"
17,CR5172 (FGVVTSVITWVVAVFA),"CCL1, CCL18, and CXL10, SDF1, and IL8"
18,CR26500 (WFLPIMYSIICFVGLL),"CCL28, SDF1,; also recorded: CXL14"
19,CR5077 (FGFFIPLMFMIFSYTF),"CCL18, X3CL1,; also recorded: CXL14"
20,CR4802 (FCALVTLITSLFGSIF),"CCL11, CCL17,; also recorded: CCL18, CCL19,; also recorded: CCL20, CCL22,; also recorded: CCL25, CCL28,; also recorded: CCL8, X3CL1,; also recorded: CXL10, CXL11,; also recorded: SDF1, CXL13,; also recorded: CXL14, IL8"
21,CR4754 (FARAIDIIYSLITSAN),"CCL18, CCL28,; also recorded: X3CL1"
22,CR5242 (FIGFFGSIFFITVISI),"CCL17, CCL18,; also recorded: CCL20, X3CL1,; also recorded: CXL13"
23,CR26817 (WVLGDFLCKLLNMIFS),"CCL1, CCL17, and CCL18, CCL20, and CCL28, X3CL1, and CXL10, CXL11, and CXL13, CXL14, and IL8"
24,CR5349 (FIYVLMFLCNAIGNSL),"CCL19, CCL20,; also recorded: CXL10"
25,CR27433 (YLLDFILALVGNTLAL),"CCL18, CCL19,; also recorded: CCL20, CCL25,; also recorded: CCL28, CXL10,; also recorded: CXL11"
26,CR4135 (EIYEYLFFFSFFFLAL),"CCL20, CCL25,; also recorded: CXL11, CXL13"
27,CR3800 (DYSIILMFLSDFSFIF),"CCL1, CCL11, and CCL15, CCL18, and CCL28, X3CL1, and CXL10, CXL11, and SDF1, CXL13, and IL8"

# Same assay, conditions: log2E greater than 5, chemokines named by first part of UniProt Entry Name, peptides binding complement C5a (control) excluded
row,Substance,Chemokines Bound
1,VP988 (CIILLVYVYATFATKG),"CCL1, CCL8,; also recorded: X3CL1, CXL10,; also recorded: CXL11"
2,CR6558 (FYISLFAGVSFLINLS),"CCL17, CCL18,; also recorded: CCL19, CCL20,; also recorded: CCL22, CCL25,; also recorded: CCL28, X3CL1,; also recorded: CXL10, CXL11,; also recorded: SDF1, CXL13,; also recorded: CXL14, IL8"
3,VP11669 (YSLVFVILMCIPFSFQ),"X3CL1, CXL10,; also recorded: CXL11, IL8"
4,CR9284 (ILAFFASWLPYYIGIS),"CCL17, CCL18,; also recorded: CCL25"
5,CR9192 (IISLVVWGLSVIISSS),"CCL18, CXL10, and CXL13, CXL14, and IL8"
6,CR8655 (IAVFGLLGNILVVITF),"CCL17, CCL22,; also recorded: CCL25, IL8"
7,CR8427 (HTLRMTIFCLVLPLLV),"CCL28, CXL10, and CXL11, SDF1, and IL8"
8,VP4048 (IILLVYVYATFATKGI),"CCL1, CCL5,; also recorded: CCL8, X3CL1,; also recorded: CXL10, CXL11,; also recorded: CXL13, IL8"
9,CR7814 (GVVTSVITWLVAVFAS),"CCL11, CCL2, and CCL22, CCL8, and IL8"
10,CR7642 (GSMLLSVLFTLYVSTL),"CCL25, CXL10,; also recorded: CXL11, CXL13"
11,CR7818 (GVWLMAIVGTFLNMLV),"CCL1, CCL18,; also recorded: CXL11, SDF1,; also recorded: CXL14"
12,CR6269 (FTGMPPADEDYSPCML),"CCL11, CCL17,; also recorded: CCL18, CCL19,; also recorded: CCL20"
13,CR7819 (GVWLMAIVGTFLNVLV),"CCL17, CCL18, and CCL2, CCL20, and CCL22, CXL11, and SDF1, CXL13, and IL8"
14,CR8675 (IAYSLIAVFGLLGNIL),"CCL17, CCL22,; also recorded: CCL25, CCL28,; also recorded: CXL11"
15,CR8339 (HRTVKLIFAIVVAYFL),"CCL28, X3CL1,; also recorded: CXL11, SDF1,; also recorded: CXL14"
16,EB936 (EKSDEYELFTVEYCGT),"CXL10, CXL11,; also recorded: SDF1, CXL13"

# Same assay, conditions: log2E greater than 5, chemokines named by first part of UniProt entry name, C5a (control) binders excluded
row,Substance,Chemokines Bound
1,CR10008 (ITLFASDFVLMWAVFF),"CCL1, CCL22,; also recorded: CXL10, CXL11"
2,CR14765 (LVFLLSLVGNSLVLWV),"CCL2, CCL28,; also recorded: CXL10, IL8"
3,CR20557 (SGYDMWLMLVYSVMIP),"CCL1, CCL15,; also recorded: CCL25"
4,CR20273 (SESALAFIYVLMFLCN),"CCL18, CCL19,; also recorded: CCL20, CXL14"
5,CR14752 (LVFIFGFVGNMLVVLI),"CCL17, CCL25,; also recorded: CXL10"
6,CR18189 (QHNLFFLLSLGIILFC),"CCL17, CCL18,; also recorded: CCL22, CCL25,; also recorded: X3CL1, CXL14"
7,CR1325 (ALYSLLFLLGLLGNGA),"CCL17, CCL19,; also recorded: CCL2, CCL20,; also recorded: CCL22, CXL11,; also recorded: CXL14"
8,CR17907 (PYHWGWVLGDFLAKLL),"CCL17, CCL18,; also recorded: CCL25"
9,CR2129 (AVFYALLFVFSLLGNS),"CCL15, CCL18, and CCL19, CCL20, and CCL25, CCL28, and SDF1"
10,CR2278 (AVWGLSLLFALPDFIF),"CCL18, CCL2,; also recorded: CCL22, CCL28,; also recorded: CXL10, CXL11,; also recorded: SDF1, CXL13,; also recorded: CXL14, IL8"
11,CK1445 (FVVDYYETSSLCSQPA),"CCL19, CCL2, and X3CL1, SDF1, and IL8"
12,CR1475 (ANVTFTGLIAAFSWFM),"CCL2, CCL22,; also recorded: CXL11, CXL13"
13,CR12569 (LGVWLMAIVGTFLNVL),"CCL2, X3CL1,; also recorded: CXL10, CXL11"
14,CR19824 (RVTLTALAVWGLALLF),"CCL2, CCL22,; also recorded: CCL25, CXL10,; also recorded: CXL11, SDF1,; also recorded: CXL14, IL8"
15,CR11295 (KVLWALQYIGLGFFAA),"CCL17, CCL18,; also recorded: CCL2, CXL10,; also recorded: SDF1, CXL14"
16,CR21284 (SMVIWVLAFFLSSPSL),"CCL1, CCL18,; also recorded: CCL20"
17,CR14974 (LVTLPFWGISVAWHWV),"CCL18, CCL25,; also recorded: CCL28"
18,CR21134 (SLSISLLAEVLMFLFP),"CCL17, CCL18, and CCL2, CCL25, and CCL28, X3CL1, and CXL10, CXL11, and SDF1, CXL14, and IL8"
19,CR14780 (LVFVIGLVGNILVVLV),"CCL17, CCL18,; also recorded: CCL19, CCL20,; also recorded: CCL22, CCL25,; also recorded: CCL28, X3CL1,; also recorded: CXL10, CXL14"
20,CR12308 (LFTLYVSTLDFCIVFI),"CCL20, CCL22, and CCL28, CXL10, and SDF1"
21,CR1004 (ALAFIYVLMFLCNAIG),"CCL17, CCL18,; also recorded: CCL19, CCL20,; also recorded: CXL10, CXL14"
22,CR15930 (MVIWVLAFFLSSPSLV),"CCL28, CXL10,; also recorded: CXL14"
23,CR20660 (SIILMFLSDFSFIFSS),"CCL25, CXL13, and IL8"
24,CR22736 (TFGVVTSVITWLVAVF),"CCL1, CCL11, and CCL17, CCL18, and CCL2, CCL25, and CCL28, CCL8, and X3CL1, CXL10, and CXL11, SDF1, and CXL13, CXL14, and IL8"
25,CR20939 (SLCLSISLLAEVLMFL),"CCL1, CCL18,; also recorded: CCL19, X3CL1"
26,CR22271 (SWIISFSVWMAAILLS),"CCL1, CCL17,; also recorded: CXL10"
27,CR22218 (SVSLVNLLTIIGCLWV),"CCL19, X3CL1,; also recorded: CXL13"
28,CR14850 (LVLGLLLNSLALWVFS),"CCL22, CCL28,; also recorded: CXL10, CXL11,; also recorded: SDF1, CXL14"
